In US10723741B1, “DNA polymerase IIIC inhibitors and use thereof” (Acurx Pharmaceuticals, LLC, priority 2018, dated 2020):
Values after ≈ are worked out from the molar mass of the structure shown. Where two headings read alike, the source gives them in different places.

Columns and labels:
Type in all cases: cell-based
[1] = test system: Escherichia coli ATCC 25922; experiment: Broth microdilution MIC, E. coli ATCC 25922 (MHIIB w & w/o 4 mM EDTA); details: broth microdilution, 37° C., 20 hours; for MIC: Escherichia coli, ATCC25922, without EDTA, read-out: MIC E. coli ATCC 25922; for MIC E. coli ATCC 25922 + 4 mM EDTA: with 4 mM EDTA
Outline: (§1)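 Broth microdilution in strain-specific test medium with ~5.0×10^5 cfu/ml inoculum, 1% DMSO and two-fold compound dilutions from 64 to 0.0625 μg/ml. Plates were held 20 hours at 37° C in ambient air. S. pneumoniae colonies were grown beforehand on blood agar in 5% CO2.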

[2] = test system: Staphylococcus aureus NRS384 (MRSA); experiment: Broth microdilution MIC, S. aureus NRS384 (MRSA); details: Staphylococcus aureus, broth microdilution, 37° C., 20 hours
Outline: as §1

[3] = test system: Bacillus subtilis ATCC 6633; experiment: Broth microdilution MIC, B. subtilis ATCC 6633; details: ATCC6633, broth microdilution, 37° C., 20 hours, read-out: MIC B. subtilis ATCC 6633
Outline: as §1

[4] = test system: Streptococcus pneumoniae ATCC 49619; experiment: Broth microdilution MIC, S. pneumoniae ATCC 49619; details: ATCC49619, broth microdilution, 37° C., 20 hours, read-out: MIC S. pneumoniae ATCC 49619
Outline: as §1

[5] = test system: Enterococcus faecium ATCC 700221 (VRE); experiment: Broth microdilution MIC, E. faecium ATCC 700221 (VRE); details: Enterococcus faecium, broth microdilution, 37° C., 20 hours
Outline: as §1

[6] = test system: Staphylococcus aureus ATCC 29213 (MSSA); experiment: Broth microdilution MIC, S. aureus ATCC 29213 (MSSA); details: broth microdilution, 37° C., 20 hours, read-out: MIC S. aureus ATCC 29213 (MSSA)
Outline: as §1

[7] = read-out: MIC E. faecium ATCC 700221 (VRE)
[8] = MHIIB, read-out: MIC against S. aureus NRS 384 (MRSA)
[9] = MHIIB, read-out: MIC against E. faecium ATCC 700221 (VRE)

Row | Compound | MIC [1] [µg/mL] | MIC E. coli ATCC 25922 + 4 mM EDTA [1] [µg/mL] | MIC ([2]; read-out: MIC NRS 384 (MRSA)) [µg/mL] | MIC [3] [µg/mL] | MIC [4] [µg/mL] | MIC [5, 7] [µg/mL] | MIC [6] [µg/mL] | MIC [2, 8] [µg/mL] | MIC [5, 9] [µg/mL]
1 | Cl.O=c1[nH]c(NCc2ccc(Cl)c(Cl)c2)nc2cnn(CC3CNCCO3)c12 (stereo not shown) [Compound 149, 5-((3,4-dichlorobenzyl)amino)-1-(morpholin-2-ylmethyl)-1H-pyrazolo[4,3-d]pyrimidin-7(6H)-one hydrochloride] | > 64 | 64 | 32 | 2 | 4 | 8 | 16 |  | 
2 | O=c1[nH]c(NCc2ccc(Cl)c(Cl)c2)nc2cnn(C3CCCC3)c12 [Compound 214, 1-cyclopentyl-5-((3,4-dichlorobenzyl)amino)-1H-pyrazolo[4,3-d]pyrimidin-7(6H)-one] | > 64 | >64 | 1 (≈ 2.64 µM) | 0.5 (≈ 1.32 µM) | 8 (≈ 21.1 µM) | 1 (≈ 2.64 µM) | 2 (≈ 5.29 µM) | ≤ 1 | ≤ 1
3 | CN(C)CCOCCn1ncc2nc(NCc3ccc(Cl)c(Cl)c3)[nH]c(=O)c21.Cl [Compound 211, 5-((3,4-dichlorobenzyl)amino)-1-(2-(2-(dimethylamino)ethoxy)ethyl)-1H-pyrazolo[4,3-d]pyrimidin-7(6H)-one hydrochloride] | > 64 | >64 | 32 | 2 | 4 | 8 | 32 |  | 
4 | O=c1[nH]c(NCc2ccc(Cl)c(Cl)c2)nc2cnn(C3CC3)c12 [Compound 213, 1-Cyclopropyl-5-((3,4-dichlorobenzyl)amino)-1H-pyrazolo[4,3-d]pyrimidin-7(6H)-one] | > 64 | >64 | 1 (≈ 2.86 µM) | 0.5 (≈ 1.43 µM) | 4 (≈ 11.4 µM) | 1 (≈ 2.86 µM) | 1 (≈ 2.86 µM) | ≤ 1 | ≤ 1
5 | COC(=O)CCCCn1ncc2nc(NCc3ccc(Cl)c(Cl)c3)[nH]c(=O)c21 [Compound 218, methyl 5-[5-[(3,4-dichlorophenyl)methylamino]-7-oxo-6H-pyrazolo[4,3-d]pyrimidin-1-yl]pentanoate] | > 64 | >64 | 1 (≈ 2.36 µM) | 0.5 (≈ 1.18 µM) | 2 (≈ 4.71 µM) | 1 (≈ 2.36 µM) | 1 (≈ 2.36 µM) | ≤ 1 | ≤ 1
6 | O=C([C@@H](O)[C@H](O)CO)N1CCC(n2ncc3nc(NCc4ccc(Cl)c(Cl)c4)[nH]c(=O)c32)CC1 [Compound 276, 5-((3,4-dichlorobenzyl)amino)-1-(1-((2S,3R)-2,3,4-trihydroxybutanoyl)piperidin-4-yl)-1H-pyrazolo[4,3-d]pyrimidin-7(6H)-one] | > 64 | >64 | 64 (≈ 125 µM) | 16 (≈ 31.3 µM) | 8 (≈ 15.6 µM) | 32 (≈ 62.6 µM) | > 64 |  | 
7 | O=C(O)CCC(=O)N1CCC(n2ncc3nc(NCc4ccc(Cl)c(Cl)c4)[nH]c(=O)c32)CC1 [Compound 273, 4-(4-(5-((3,4-dichlorobenzyl)amino)-7-oxo-6,7-dihydro-1H-pyrazolo[4,3-d]pyrimidin-1-yl)piperidin-1-yl)-4-oxobutanoic Acid] | > 64 | >64 | > 64 | > 64 | 32 (≈ 64.9 µM) | 32 (≈ 64.9 µM) | > 64 |  | 
8 | O=c1[nH]c(NCc2ccc(Cl)c(Cl)c2)nc2cnn(-c3ccccc3)c12 [Compound 212, 5-[(3,4-dichlorophenyl)methylamino]-1-phenyl-6H-pyrazolo[4,3-d]pyrimidin-7-one] | > 64 | >64 | 1 (≈ 2.59 µM) | 1 (≈ 2.59 µM) | 8 (≈ 20.7 µM) | 1 (≈ 2.59 µM) | 1 (≈ 2.59 µM) | ≤ 1 | ≤ 1
9 | Cn1ncc2nc(NCc3ccc(Cl)c(Cl)c3)[nH]c(=O)c21 [Compound 2, 5-((3,4-Dichlorobenzyl)amino)-1-methyl-1H-pyrazolo[4,3-d]pyrimidin-7(6H)-one] | > 64 | >64 | 1 (≈ 3.08 µM) | 1 (≈ 3.08 µM) | 4 (≈ 12.3 µM) | 1 (≈ 3.08 µM) | 2 (≈ 6.17 µM) | ≤ 1 | ≤ 1
10 | Cl.Cl.O=c1[nH]c(NCc2ccc(Cl)c(Cl)c2)nc2cnn(CCOCCN3CCNCC3)c12 [Compound 167, 5-[(3,4-dichlorophenyl)methylamino]-1-[2-(2-piperazin-1-ylethoxy)ethyl]-6H-pyrazolo[4,3-d]pyrimidin-7-one] | > 64 | >64 | > 64 | 16 | 16 | 64 |  |  | 
11 | COCCn1ncc2nc(NCc3ccc(Cl)c(Cl)c3)[nH]c(=O)c21 [Compound 126, 5-((3,4-dichlorobenzyl)amino)-1-(2-methoxyethyl)-1H-pyrazolo[4,3-d]pyrimidin-7(6H)-one] | > 64 | >64 | 2 (≈ 5.43 µM) | 1 (≈ 2.72 µM) | 2 (≈ 5.43 µM) | 2 (≈ 5.43 µM) | 2 (≈ 5.43 µM) |  | 
12 | Cc1nn(C)c2c(=O)[nH]c(NCc3ccc(Cl)c(Cl)c3)nc12 [Compound 44, 5-((3,4-dichlorobenzyl)amino)-1,3-dimethyl-1H-pyrazolo[4,3-d]pyrimidin-7(6H)-one] | > 64 | >64 | 2 (≈ 5.91 µM) | 2 (≈ 5.91 µM) | 4 (≈ 11.8 µM) | 4 (≈ 11.8 µM) | 2 (≈ 5.91 µM) | ≤ 1 | ≤ 1
13 | O=c1[nH]c(NCc2ccc(Cl)c(Cl)c2)nc2cn[nH]c12 [Compound 77, 5-((3,4-dichlorobenzyl)amino)-1H-pyrazolo[4,3-d]pyrimidin-7(6H)-one] | > 64 | >64 | 8 (≈ 25.8 µM) | 4 (≈ 12.9 µM) | 4 (≈ 12.9 µM) | 4 (≈ 12.9 µM) | 8 (≈ 25.8 µM) |  | 
14 | C=CCn1ncc2nc(NCc3ccc(Cl)c(Cl)c3)[nH]c(=O)c21 [Compound 56, 1-allyl-5-((3,4-dichlorobenzyl)amino)-1H-pyrazolo[4,3-d]pyrimidin-7(6H)-one] | > 64 | >64 | 0.5 (≈ 1.43 µM) | 0.25 (≈ 0.714 µM) | 2 (≈ 5.71 µM) | 0.5 (≈ 1.43 µM) | 1 (≈ 2.86 µM) | ≤ 1 | ≤ 1
15 | Cl.O=c1[nH]c(NCc2ccc(Cl)c(Cl)c2)nc2cnn(C3CCN(C4CCOCC4)CC3)c12 [Compound 242, 5-((3,4-dichlorobenzyl)amino)-1-(1-(tetrahydro-2H-pyran-4-yl)piperidin-4-yl)-1H-pyrazolo[4,3-d]pyrimidin-7(6H)-one hydrochloride] | > 64 | 32 | 4 | 2 | 2 | 2 | 8 |  | 
